Melting point data for 89 compounds are collected here from a melting point compilation (Tetko et al.; mined from patent text by program, amines drawn as free bases though some values may be those of a salt).

As usually defined, the melting point is the temperature of the solid-liquid transition. In turn, `COc1ccc(Cl)cc1C(=O)NCCc1ccc(CCCCCCC(=O)O)cc1` registered a melting point of 36 °C.

As for `CC1Cc2c(n(-c3ccc(Cl)cc3)c3ncccc3c2=O)O1` (centres undefined), the melting point is 227 to 228 °C.

`CCS(=O)(=O)C(F)(F)c1nnc(OCC(=O)N(C)c2ccccc2)s1`: the melting point lay in the range of 103 to 104 °C.

`OCC1(CO)C=CC(c2ccccc2)=CC1`: the melting point was in the range of 187 to 188 °C.

Compound `CCCCC(=NO)C(C)(C)NOC(CNC(C)(C)C(CC)=NO)Cn1ccnc1[N+](=O)[O-]` (centres undefined) showed a melting point of 153 to 154 °C.

For the compound `COc1ccc(C2CC(=O)C(C(=O)O)=CN2C2CC2)cc1` (centres undefined), the melting point was in the range of 137 to 139 °C.

For `C1CCC(CC2CNCCNCCNCCNCCN2)CC1` (centres undefined), the melting point was 87 to 89 °C.

For the compound `CC(COc1ccc(/C=C/C(=O)O)cc1)N(C)C` (centres undefined), the melting point worked out at 231 °C.

On to `COc1cccc(C2=CCN(c3ccc(Cl)nn3)CC2)c1`, for which the melting point was found to be 126 °C.

Turning to `OCc1cccc(-c2csc(-c3cn([C@H]4CN5CCC4CC5)nn3)c2)c1`, the melting point is 211 °C.

Regarding `N#Cc1ccc(NC(=O)c2cccc(OCc3ccc(Cl)cn3)c2)cc1`, the melting point lay within 168 to 169 °C.

`OC1(CNCc2ccccc2)CCN(CCCc2c[nH]c3ccc(-n4cnnc4)cc23)C1` (centres undefined) gave a melting point above 61 °C.

With `CCOCCc1cc2c(nc(O)n2CCCCS(C)(=O)=O)c(N)n1`, the melting point was in the range of 203 to 206 °C.

Consider `CC(=O)NCc1ccc2[nH]cc(C=O)c2c1`, for which the melting point was in the range of 182 to 184 °C.

`COc1ccc2[nH]c3c(c2c1)C[C@@]1(C)C(=O)N(CCN2CCCC2)C(=O)N1[C@@H]3c1cccc(O)c1` (racemic) returned a melting point of 252 to 255 °C.

`CC(C)(C)c1nc2cc(N3CCCCC3)c(NC(N)=S)cc2s1` gave a melting point of 228 to 232 °C.

In the case of `Cc1ccc(-c2cccc(NC(=O)Nc3cccc4c3CC(O)CC4)c2)cc1` (centres undefined), the melting point fell in the range of 217 to 219 °C.

Take `COC1CC(C(=O)O)Cc2onc(-c3ccc(Cl)cc3)c21` (centres undefined): the melting point is 190 to 191 °C.

Regarding `Cn1c(Cl)c(C(=O)C(=O)N2CCCC2)c2ccc(Cl)cc21`, the melting point lay within 174 to 175 °C.

The compound `CCOc1cc([C@@H](CC(=O)N(C)C)N2Cc3cccc(NC(=O)N(C)C)c3C2=O)ccc1OC` displayed a melting point of 105 to 107 °C.

With `Cc1c(-c2ccc3c(c2)C2(CCCCC2)C(=O)N3)sc2ccc(Cl)cc12`, the melting point is 256 to 258 °C.

Compound `Cc1cccc(C)c1N(CCCC(=O)N[C@@H](CO)C(=O)O)C(=O)c1ccc(Cl)cc1` returned a melting point of 147 to 148 °C.

`COc1ccc(CNc2cc(OC)c(Cl)cc2OC)cc1` displayed a melting point of 53 to 63 °C.

In turn, `Cc1cc(Cl)ccc1NC(=O)C(=O)N1CCC(Cc2ccccc2)CC1` showed a melting point of 105 to 108 °C.

In turn, `CCOc1cc(-c2cc(C(F)(F)F)n3ncc(C(=O)Nc4nc(C)c(S(=O)(=O)NC(C)(CO)CO)s4)c3n2)ccc1C(F)(F)F` displayed a melting point of 220 °C.

`CN1CC(CC#N)CC2c3cccc4c3C(CN4)CC21` (centres undefined) came in with a melting point of 100 to 104 °C.

In turn, `CCCN=C(NCCC)c1cc(Cl)ccc1[N+](=O)[O-]` yielded a melting point of 63 to 64 °C.

For the compound `O=S(=O)(NCCCCCCCCn1ccnc1)c1ccc(Cl)cc1`, the melting point is 54 to 56 °C.

Regarding `CCOC(=O)C1=C(C)Nc2ccccc2N(C)C1c1cccc([N+](=O)[O-])c1` (centres undefined), the melting point was 113 to 116 °C.

With `O=C(O)Cc1ccc2nc(-c3ccccc3)ccc2c1`, the melting point is 161 to 162 °C.

As for `O=C(Nc1cccc2c(CCO)c(Br)cnc12)c1c(Cl)cccc1Cl`, the melting point lay in the range of 199 to 200 °C.

As to `CC(C)(C)c1ccc(CO)cc1NC(=O)CC1c2ccccc2Oc2ccccc21`, the melting point was 137 to 138 °C.

For the compound `CCc1nn2c(-c3ccc(OC)cc3Cl)cccc2c1N(CC)CCCF`, the melting point lay in the range of 76.6 to 79.6 °C.

In the case of `CC1(C)O[C@@H]2[C@@H](O1)[C@H](C(=O)O)O[C@H]2n1cnc2c(N)nc(I)nc21`, the melting point lay within 187 to 190 °C.

As for `Cn1c(=O)[nH]c2ccsc2c1=O`, the melting point lay in the range of 260 to 262 °C.

`COc1ccc(C2CNC(=O)O2)cc1O` (centres undefined) showed a melting point of 157 to 160 °C.

On to `CN1CCN(C2(CNC(=O)c3ccc(Cl)c(Cl)c3)CCCCC2)CC1`, for which the melting point fell in the range of 143 to 146 °C.

`NC(=C[N+](=O)[O-])NC1CCCCCC1`: the melting point lay within 118 to 125 °C.

`O=[N+]([O-])CCc1ccc2ccccc2c1` returned a melting point of 59 to 60 °C.

As for `CCOC(=O)c1c(Cl)nn(C)c1S(N)(=O)=O`, the melting point is 121 to 123 °C.

Compound `CS(=O)CCNC(=O)CC(O)(Cn1cncn1)c1ccc(Cl)cc1Cl` (centres undefined) displayed a melting point of 168 to 170 °C.

`COc1cc(Cc2cnc(N)nc2N)cc(OC)c1` came in with a melting point of 164 to 168 °C.

The compound `CC(C)(C)C(=O)NC1CCC(c2cc(Nc3cccc(C(F)(F)F)c3)n[nH]2)C1` (centres undefined) showed a melting point of 249 °C.

On to `Cc1ccccc1C(=NC#N)NC(NC(=O)Cc1ccc(Cl)cc1)C(C)(C)C` (centres undefined), for which the melting point lay within 109 to 110 °C.

`Nc1ncc(C#Cc2ccc(Cl)cc2)c(OC2CCC(=O)CC2)n1` showed a melting point of 168 to 172 °C.

For `CCOC(=O)C1Cc2cc(-c3ccccc3)ccc2O1` (centres undefined), the melting point was found to be 112 °C.

With `OC[C@H]1O[C@@H](n2cnc3c(N[C@@H]4CCN(c5ccc(C(F)(F)F)cn5)C4)ncnc32)[C@H](O)[C@@H]1O`, the melting point fell in the range of 166 to 170 °C.

`CCOC(=O)C(NC=O)C(=O)Nc1ccc(Br)cc1C` (centres undefined) displayed a melting point of 174 to 176 °C.

`COc1ccc(C=CCN2CCc3nc(N)sc3CC2)cc1`: the melting point was in the range of 155 to 160 °C.

Turning to `Cc1nn(-c2ccccn2)c2nc3ccc(C(F)(F)F)cc3c(Cl)c12`, the melting point came to 206 °C.

Compound `COc1cccc(OC)c1C(=O)P(=O)(C(=O)c1c(C)cc(C)cc1C)c1ccccc1` (centres undefined) came in with a melting point of 126 to 127 °C.

Compound `Cc1cc(C(=O)N2Cc3ccc(C(=O)O)n3Cc3ccccc32)ccc1-c1ccccc1C(F)(F)F` came in with a melting point of 127 to 130 °C.

`COc1ccc(CCOC(c2ccccc2)(c2ccccc2)C(O)C(=O)O)cc1OC` (centres undefined) displayed a melting point of 133 to 135 °C.

The compound `C=CCON=C(CCC)C1=C(O)CC(c2cc(C)cs2)CC1=O` (centres undefined) gave a melting point of 72 to 74 °C.

For `CCC(=O)N(CCc1ccccc1)C1CCc2c(cccc2NC(C)=O)C1` (centres undefined), the melting point was in the range of 143 to 145 °C.

The compound `O=C1NC(=O)C(C2CCCC2)C(=O)N1` showed a melting point of 222 to 223 °C.

Regarding `COc1cnc(-c2cccn3nc(Nc4ccc(C5CCN(CC(=O)N(C)C)CC5)cc4)nc23)cn1`, the melting point lay within 185 to 187 °C.

Take `Cc1[nH]c2ccc(F)cc2c1C(=O)NC1CCN(Cc2ccccc2)CC1`: the melting point is 166 to 169 °C.

As to `CCCc1nc2c(N)nc3ccccc3c2n1CC(C)(C)C(=O)N1CCOCC1`, the melting point was 212 to 214 °C.

`CC(C)Oc1cc(-c2[nH]c3cn[nH]c(=O)c3c2Cl)ccc1OC(F)F` yielded a melting point of 248 to 262 °C.

Consider `O=C(O)C(=O)Nc1coc2ccccc2c1=O`, for which the melting point is 195 to 197 °C.

Turning to `COc1ccc(-c2n[nH]c(=O)c3cc(OC)ccc23)cc1`, the melting point amounted to 245 °C.

As to `N#CC1CCCc2cc3c(nc21)CCCC3` (centres undefined), the melting point lay in the range of 88 to 90 °C.

The compound `CCOC(=O)C=C1CSC(=N)N1N` gave a melting point of 135 to 137 °C.

In turn, `O=C1CCc2cc(Br)c(NC(=O)C(F)(F)F)cc21` registered a melting point of 220 °C.

Compound `CC(C)c1nc2cc(COc3ccc(CC4OC(=O)N(C(c5ccccc5)(c5ccccc5)c5ccccc5)C4=O)cc3)ccc2o1` (centres undefined) had a melting point of 123 to 125 °C.

In the case of `CC1=NNS(=O)(=O)c2sc(Cl)cc21`, the melting point lay in the range of 182 to 184 °C.

Consider `N#Cc1nn(-c2c(Cl)cc(C(F)(F)F)cc2Cl)cc1-c1ccoc1Br`, for which the melting point worked out at 111 °C.

`Cc1ccc(C(=O)N[C@H](CSCC(=O)OC(C)(C)C)CC(C)C)s1`: the melting point is 81 to 83 °C.

As to `O=C(NCCc1ccc(F)cc1)c1ccc(S(=O)(=O)Nc2ccccc2C(=O)O)cc1`, the melting point lay within 85 to 86 °C.

Compound `Cc1c(N2CCC3(CC3N)C2)c(F)cc2c(=O)c(C(=O)O)cn([C@@H]3C[C@@H]3F)c12` (some centres undefined) registered a melting point of 103 to 109 °C.

On to `C#CCOc1ccc2ccc(NC(=O)c3ccc(OC)cc3)nc2n1`, for which the melting point came to 140 °C.

With `Cc1oc(C=Cc2cccc(Cl)c2)nc1CO`, the melting point is 147 to 148 °C.

For the compound `OCn1c2ccccc2c2ccccc21`, the melting point was in the range of 127 to 129 °C.

The compound `CC(C)(C)N(NC(=O)c1ccccn1)C(=O)c1ccccc1Br` had a melting point of 179 to 180 °C.

Compound `CC(=NO)C(C)(C)NCC(Cn1ccnc1[N+](=O)[O-])ONC(C)(C)C(C)=NO` (centres undefined) yielded a melting point of 170 to 171 °C.

In the case of `CC1Nc2cc(F)c(F)cc2-n2cccc21` (centres undefined), the melting point was 93 to 95 °C.

With `Clc1ccc(-n2ncnc2-c2cnccn2)cc1`, the melting point lay within 129 to 131 °C.

With `CCCCc1[nH]c2ccc([N+](=O)[O-])cc2c1C(=O)c1ccc(OCCCCl)cc1`, the melting point came out at 125 °C.

As to `COc1ccc(-c2nc(CN3CCCCC3)nc3cc(OC)c(OC)cc23)cc1OC`, the melting point is 130 to 132 °C.

The compound `CCOc1cc(-c2cc(C(F)(F)F)n3cnc(-c4ccnc(C)c4)c3n2)ccc1C(F)(F)F` came in with a melting point of 177 °C.

On to `O=C1N(Cc2ccc(OC(F)(F)F)cc2)c2ccccc2C12COc1cc3c(cc12)OCO3` (centres undefined), for which the melting point was in the range of 99 to 101 °C.

On to `c1ccc2c(c1)cnc1nnnn12`, for which the melting point is 150 °C.

With `CCCCS(=O)(=O)C1CC(=O)N1CC(=O)CCc1ccccc1` (centres undefined), the melting point lay within 93 to 94 °C.

`O=C(Nc1ccc(C(=O)N2C[C@@H]3C[C@H](O)CN3c3ccccc32)cc1)c1ccccc1-c1ccccc1` gave a melting point of 164 to 165 °C.

`CN1CCN(C)c2cccc(Nc3ncc(Cl)c(N[C@@H]4CCCC[C@H]4NS(C)(=O)=O)n3)c2C1=O` returned a melting point of 160 °C.

In the case of `CC1(C)[C@H](C(=O)OCc2csc(Oc3ccccc3)n2)[C@@H]1C=C1CCSC1=O`, the melting point worked out at 78 °C.

Take `Cc1oc(-c2ccc(C(F)(F)F)cc2)nc1CCl`: the melting point was 84 to 85 °C.

As for `COc1ccc2c(Cc3ccc(OC4CCCC4N4CCCCC4)cc3)c(-c3ccc(OCCN4CCCC4)cc3)sc2c1` (centres undefined), the melting point is 61 to 64 °C.
